Reference: ChEMBL document CHEMBL3044791, “Synthesis and Structure-Activity Relationships of Vasicine Analogues as Bronchodilatory Agents” (2005)

What was measured:
Tissue [1] = assay: Bronchodilatory activity in histamine-precontracted Cavia porcellus (guinea pig) trachea at 30 ug/ml; format: functional
Tissue [2] = assay: Bronchodilatory activity in acetylcholine-precontracted Cavia porcellus (guinea pig) trachea at 30 ug/ml; format: functional

Row | SMILES | Activity (Tissue [1]) [%] | Activity (Tissue [2]) [%]
1 | O=C1CC(c2ccccc2)N=C2CCCCN12 (centres undefined) | 20 | –
2 | CCCc1nc2ccccc2c(=O)n1-c1ccc(F)cc1 | 10 | –
3 | Cc1nc2ccccc2c(=O)n1-c1ccc(F)cc1 | 80 | –
4 | O=c1c2ccccc2nc2n1CCCC2 | 40 | –
5 | O=c1c2cc3c(cc2nc2n1CCCCC2)OCO3 | 100 | 100
6 | O=c1c2ccccc2nc2n1CCC2 [DEOXYVASICINONE] | 20 | –
7 | Cn1c(=O)c2c(ncn2CCO)n(C)c1=O [ETOFYLLINE] | 40 | 40
8 | O=c1c2ccccc2nc2n1CCCCC2 | 100 | 100
9 | O=c1c2cc3c(cc2nc2n1CCCC2)OCO3 | 50 | 40
10 | O=C1CC(c2ccccc2)N=C2CCCCCN12 (centres undefined) | 50 | 30
11 | CCc1nc2ccccc2c(=O)n1-c1ccc(F)cc1 | 20 | –
12 | CCc1nc2ccccc2c(=O)n1-c1ccccc1 | 100 | –
13 | Cc1nc2ccccc2c(=O)n1-c1ccccc1 | 100 | –
14 | CCCc1nc2ccccc2c(=O)n1-c1ccccc1 | 50 | –
